Values of other authors as cited in patent US7132111B2, “Odorless formulation for treating mucosal discontinuities” (Epien Medical, Inc., priority 2003, dated 2006).

Tested on: aphthous ulcers
Conditions: applied locally, three times a day

CN(C)[C@@H]1C(O)=C(C(N)=O)C(=O)[C@@]2(O)C(O)=C3C(=O)c4c(O)ccc(Cl)c4[C@@](C)(O)[C@H]3C[C@@H]12 [Aureomycin]
duration of analgesic effect: one half to two | duration of the ulcers with treatment (reduced from about 10 days): ~5 days
